Measured values as given in patent US20230016424A1, “HYBRID AMIDE DERIVATIVES OF AMPHOTERICIN B” (The Board of Trustees of the University of Illinois, priority 2019, published 2023).
In brackets after ≈: the same amount, converted by molar mass. Several values for one entry are separate records, joined by “and”; a condition that tells them apart may be missing. Equal entries are not always repeated.

Key:
Candida albicans SN250 = test: Mouse model of invasive candidiasis (kidney CFU); settings: for Mouse candidiasis model: 5 mpk
[1] = Liver microsome stability, summary for all species; type: in vitro ADME; settings: Mouse, rat, dog, monkey, human: All species
Protocol: Working Compound solution: 10 uM in 50 mM potassium phosphate buffer with 9% MeOH and 1% DMSO
Microsome solution: working concentration 0.625 mg/ml
Stopping solution: Cold ACN with 200 ng/ml Tolbutamide and 200 ng/ml Labetalol (4° C.)
Procedure: In the well plates (T5, T10, T20, T30, T60, NCF60 (no cofactor 60)) 10 uL of the compound/control working solution was added (except T0 and matric blank) followed by microsome solution (80 uL) and the mixture was incubated at 37 C for about 10 mins. A solution of potassium phosphate (10 ul of 50 mM) was added to NCF60 well, incubated at 37 C and time counting started. After prewarming 10 ul of NADPH regenerating solution was added to each plate to start the reaction. At different time point 300 uL/well of stopping solution to terminate the reaction. The sampling plates were shaken for 10 mins and the centrifuged for 20 mins at 4000 rpm. The supernatant was half diluted with ultra pure water and the analyzed using LCMS.

CYP1A2 = biological target: T1, CYP1A2 (Homo sapiens, UniProt P05177); test: CYP Inhibition; type: in vitro ADME; settings: human liver microsome; for P450 1A2 % Inhibition: 10 um
T1 construct: from tissue; host or cells: human liver microsomes
T1 sequence (P05177 1-516): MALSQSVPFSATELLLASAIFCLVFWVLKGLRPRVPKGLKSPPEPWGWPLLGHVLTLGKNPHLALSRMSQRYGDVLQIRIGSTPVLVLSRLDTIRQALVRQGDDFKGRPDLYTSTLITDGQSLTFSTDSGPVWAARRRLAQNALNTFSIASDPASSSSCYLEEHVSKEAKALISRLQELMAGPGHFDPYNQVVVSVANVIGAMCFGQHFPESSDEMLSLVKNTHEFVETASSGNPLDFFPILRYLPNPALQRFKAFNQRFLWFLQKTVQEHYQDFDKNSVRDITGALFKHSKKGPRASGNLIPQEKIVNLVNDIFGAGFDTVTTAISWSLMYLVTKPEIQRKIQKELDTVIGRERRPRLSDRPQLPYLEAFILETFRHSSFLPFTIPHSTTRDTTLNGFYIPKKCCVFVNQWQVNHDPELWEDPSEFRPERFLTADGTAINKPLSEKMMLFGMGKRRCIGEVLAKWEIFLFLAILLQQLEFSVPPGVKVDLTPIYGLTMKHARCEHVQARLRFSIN
Protocol: (§1) The working solutions of the test compounds and the standard inhibitors were prepared in DMSO (100× final concentration). 20 ul of substrate solution (5 in 1 cocktail) was added to the wells followed by 2 ul test compound solution was added. 158 ul of human liver microsome (HLM) was added to all the wells of the incubated plate and warmed to 37° C. for 10 mins. 20 ul of NADPH cofactor solution was then added to all the wells of incubated plate and incubated at 37° C. for 10 mins. At the time point the reaction was quenched by adding 400 uL of cold stop solution. The samples were centrifuged at 4000 rpm for 20 mins to precipitate protein. 100 ul supernatant was diluted with 100 ul of ultra pure water and analyzed using LCMS.

Different Yeasts = test: Average MIC against different yeasts; type: cell-based; set-up: MICavg yeast (46 strains): unit not given beside the values; settings: for MIC: 46 isolates
Lomentospora prolificans = test: MIC against rare moulds resistant to AmB; type: cell-based; settings: 6 isolates
A. lentulus = test: MIC against moulds; type: cell-based; settings: 6 isolates
[2] = test system: Purpureocillium lilacinum; test: MIC against rare moulds resistant to AmB; type: cell-based; settings: 6 isolates
Cunninghamella sp. = test: MIC against moulds; type: cell-based; settings: 6 isolates
Talaromyces marneffei = test: MIC against moulds; type: cell-based; settings: 6 isolates
Fusarium oxysporum = test: MIC against moulds; type: cell-based; settings: 6 isolates
Mucor circinelloides = test: MIC against moulds; type: cell-based; settings: 6 isolates
Candida krusei = test: MIC against yeasts; type: cell-based; settings: 2 isolates
Syncephalastrum sp. = test: MIC against moulds; type: cell-based; settings: 6 isolates
Rhodotorula sp. = test: MIC against yeasts; type: cell-based; settings: 6 isolates
Scedosporium aurantiacum = test: MIC against rare moulds resistant to AmB; type: cell-based; settings: 4 isolates
Blastomyces dermatitidis = test: MIC against moulds; type: cell-based; settings: 5 isolates
Sporothrix schenckii = test: MIC against rare moulds resistant to AmB; type: cell-based; settings: 6 isolates
Solubility in D5W = settings: for Solubility in D5W: 5% dextrose in water, room temperature; for Fold of Increase w.r.t. AmB (solubility): D5W
yeast (5 strains) = test: MICavg yeast (5 strains); type: cell-based; set-up: unit not given beside the values
Candida parapsilosis = test: MIC against yeasts; type: cell-based; settings: 8 isolates
[3] = test system: P. variotii MYA-3630 (QC); test: MIC against moulds; type: cell-based; settings: 5 isolates
Apophysomyces sp. = test: MIC against moulds; type: cell-based; settings: 3 isolates
CYP2D6 = CYP2D6 (Homo sapiens, UniProt P10635); test: CYP Inhibition; settings: for P450 2D6 % Inhibition: 10 um, human liver microsome
Chain of CYP2D6 (P10635 whole entry): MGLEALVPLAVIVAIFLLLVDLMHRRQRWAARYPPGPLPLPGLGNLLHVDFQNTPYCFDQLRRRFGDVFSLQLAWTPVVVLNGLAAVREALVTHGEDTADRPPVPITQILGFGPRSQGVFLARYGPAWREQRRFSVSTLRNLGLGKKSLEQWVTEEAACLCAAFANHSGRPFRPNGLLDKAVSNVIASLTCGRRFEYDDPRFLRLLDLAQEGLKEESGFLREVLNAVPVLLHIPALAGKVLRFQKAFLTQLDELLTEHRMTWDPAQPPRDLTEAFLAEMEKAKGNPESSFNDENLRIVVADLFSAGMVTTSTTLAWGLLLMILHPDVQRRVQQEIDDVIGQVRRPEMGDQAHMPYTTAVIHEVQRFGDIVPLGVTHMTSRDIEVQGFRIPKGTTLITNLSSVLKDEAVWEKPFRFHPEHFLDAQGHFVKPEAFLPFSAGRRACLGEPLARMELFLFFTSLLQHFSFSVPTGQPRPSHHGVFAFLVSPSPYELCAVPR
Protocol: as §1

CYP2C9 = CYP2C9 (Homo sapiens, UniProt P11712); test: CYP Inhibition; settings: for P450 2C9 % Inhibition: 10 um, human liver microsome
Chain of CYP2C9 (P11712 whole entry): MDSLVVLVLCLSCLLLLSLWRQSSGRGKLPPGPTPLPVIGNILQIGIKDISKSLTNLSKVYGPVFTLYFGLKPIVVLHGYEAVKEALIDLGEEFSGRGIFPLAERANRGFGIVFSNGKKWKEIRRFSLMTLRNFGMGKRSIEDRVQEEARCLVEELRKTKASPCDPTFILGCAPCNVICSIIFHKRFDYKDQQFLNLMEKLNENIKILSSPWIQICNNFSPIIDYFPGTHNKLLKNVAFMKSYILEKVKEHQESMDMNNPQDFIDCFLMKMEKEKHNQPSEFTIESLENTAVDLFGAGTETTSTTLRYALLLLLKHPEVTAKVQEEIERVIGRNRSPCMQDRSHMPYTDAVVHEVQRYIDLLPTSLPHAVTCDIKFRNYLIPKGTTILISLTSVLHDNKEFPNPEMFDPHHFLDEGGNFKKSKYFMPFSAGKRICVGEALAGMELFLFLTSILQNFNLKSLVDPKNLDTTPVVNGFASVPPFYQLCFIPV
Protocol: as §1

CYP3A4 = CYP3A4 (Homo sapiens, UniProt P08684); test: CYP Inhibition; settings: for P450 3A4 % Inhibition: 10 um, human liver microsome
Chain of CYP3A4 (P08684 whole entry): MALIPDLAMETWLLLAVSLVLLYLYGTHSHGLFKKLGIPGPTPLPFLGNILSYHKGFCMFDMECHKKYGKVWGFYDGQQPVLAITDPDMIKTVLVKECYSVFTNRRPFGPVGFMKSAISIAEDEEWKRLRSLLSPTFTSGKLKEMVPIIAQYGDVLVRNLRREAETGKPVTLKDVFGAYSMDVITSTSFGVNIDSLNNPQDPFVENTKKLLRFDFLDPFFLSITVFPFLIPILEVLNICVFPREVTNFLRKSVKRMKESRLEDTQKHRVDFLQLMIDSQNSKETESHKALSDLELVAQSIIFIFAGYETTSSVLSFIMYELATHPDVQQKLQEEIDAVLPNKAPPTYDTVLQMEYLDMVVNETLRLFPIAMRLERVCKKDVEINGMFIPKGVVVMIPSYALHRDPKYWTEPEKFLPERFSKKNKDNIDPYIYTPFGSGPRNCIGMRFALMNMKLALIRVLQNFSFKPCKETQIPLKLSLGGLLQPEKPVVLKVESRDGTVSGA
Protocol: as §1

Cryptococcus gattii = test: MIC against yeasts; type: cell-based; settings: 10 isolates
Cryptococcus neoformans = test: MIC against yeasts; type: cell-based; settings: 10 isolates
Different Moulds = test: Average MIC against different moulds; type: cell-based; set-up: MICavg moulds (159 strains): unit not given beside the values; settings: for MIC: 157 isolates
[4] = human, human liver microsomes, probe 5 in 1 substrate cocktail (substrates not named)

C[C@@H]1[C@H](O)[C@@H](C)/C=C/C=C/C=C/C=C/C=C/C=C/C=C/[C@H](OC2O[C@H](C)[C@@H](O)[C@H](N)[C@@H]2O)C[C@@H]2O[C@](O)(C[C@@H](O)C[C@@H](O)[C@H](O)CC[C@@H](O)C[C@@H](O)CC(=O)O[C@H]1C)C[C@H](O)[C@H]2C(=O)O (stereo partly drawn) [AmB, Amphotericin B]
Mouse candidiasis model (Candida albicans SN250): 5.2 Log (CFU/mL)
half-life at 1 µM ([1]; liver microsomes, read-out: Liver microsome T1/2): > 2.42 h
inhibition at 10 min, 10 µM (CYP1A2; human liver microsomes, probe 5 in 1 substrate cocktail, read-out: P450 1A2 % Inhibition): 23.1%
MICavg yeast (46 strains) (Different Yeasts): 0.9
MIC (Different Yeasts): 0.9 µM (≈ 0.832 µg/mL)
MIC (Lomentospora prolificans; Lomentospora prolificans): > 16 µM
MIC (A. lentulus; Aspergillus lentulus): 3.75 µM (≈ 3.47 µg/mL)
MIC ([2]; Purpureocillium lilacinum): > 16 µM
MIC (Cunninghamella sp.; Cunninghamella): 2 µM (≈ 1.85 µg/mL)
MIC (Talaromyces marneffei; Talaromyces marneffei): 0.09 µM (≈ 0.0832 µg/mL)
MIC (Fusarium oxysporum; Fusarium oxysporum): 1.5 µM (≈ 1.39 µg/mL)
MIC (Mucor circinelloides; Mucor circinelloides): 0.125 µM (≈ 0.116 µg/mL)
MIC (Candida krusei; Pichia kudriavzevii): 1 µM (≈ 0.924 µg/mL)
MIC (Syncephalastrum sp.; Syncephalastrum): 0.06 µM (≈ 0.0554 µg/mL)
MIC (Rhodotorula sp.; Rhodotorula): 1 µM (≈ 0.924 µg/mL)
MIC (Scedosporium aurantiacum; Scedosporium aurantiacum): > 16 µM
MIC (Blastomyces dermatitidis; Blastomyces dermatitidis): < 0.03 µM
MIC (Sporothrix schenckii; Sporothrix schenckii): 4 µM (≈ 3.7 µg/mL)
solubility (Solubility in D5W; 5% dextrose in water (D5W), saline or isotonic, thermodynamic from solid): 23 µM (≈ 21.3 µg/mL)
MICavg yeast (5 strains) (yeast (5 strains)): 0.23
MIC (Candida parapsilosis; Lodderomyces parapsilosis): 1.1 µM (≈ 1.02 µg/mL)
MIC ([3]; Paecilomyces variotii): 1 µM (≈ 0.924 µg/mL)
MIC (Apophysomyces sp.): 0.75 µM (≈ 0.693 µg/mL)
inhibition at 10 min, 10 µM (CYP2D6; [4]): 2.3%
inhibition at 10 min, 10 µM (CYP2C9; human, human liver microsomes, probe 5 in 1 substrate cocktail): 4.1%
inhibition at 10 min, 10 µM (CYP3A4; [4]): 8.1%
MIC (Cryptococcus gattii; Cryptococcus gattii): 0.75 µM (≈ 0.693 µg/mL)
MIC (Cryptococcus neoformans; Cryptococcus neoformans): 0.55 µM (≈ 0.508 µg/mL)
MICavg moulds (159 strains) (Different Moulds): 0.9
MIC (Different Moulds): 0.9 µM (≈ 0.832 µg/mL)

CC1C=CC=CC=CC=CC=CC=CC=CC(OC2OC(C)C(O)C(N)C2O)CC2OC(O)(CC(O)CC(O)C(O)CCC(O)CC(O)CC(=O)OC(C)C(C)C1O)CC(O)C2C(=O)NCCO (stereo not drawn) [Compound BA]
Mouse candidiasis model (Candida albicans SN250): 6.3 Log (CFU/mL)
Efficacy in mouse model of invasive candidiasis (Candida albicans SN250; in vivo): Highly Efficacious
Liver microsome T1/2 [1]: >2.42 h
P450 1A2 % Inhibition (CYP1A2): 0.0%
MICavg yeast (46 strains) (Different Yeasts): 2.5
MIC (Different Yeasts): 2.5 µM (≈ 2.42 µg/mL)
MIC (Lomentospora prolificans): >16 µM
MIC (A. lentulus): 3 µM (≈ 2.9 µg/mL)
MIC [2]: >16 µM
MIC (Cunninghamella sp.): 7.3 µM (≈ 7.06 µg/mL)
MIC (Talaromyces marneffei): 0.15 µM (≈ 0.145 µg/mL)
MIC (Fusarium oxysporum): 11.3 µM (≈ 10.9 µg/mL)
MIC (Mucor circinelloides): 1 µM (≈ 0.967 µg/mL)
MIC (Candida krusei): 4 µM (≈ 3.87 µg/mL)
MIC (Syncephalastrum sp.): 1 µM (≈ 0.967 µg/mL)
MIC (Rhodotorula sp.): 3.3 µM (≈ 3.19 µg/mL)
MIC (Scedosporium aurantiacum): >16 µM
MIC (Blastomyces dermatitidis): 0.6 µM (≈ 0.58 µg/mL)
MIC (Sporothrix schenckii): 6 µM (≈ 5.8 µg/mL)
Solubility in D5W (Solubility in D5W): >2600 µM
Fold of Increase w.r.t. AmB (solubility) (Solubility in D5W): >113
MICavg yeast (5 strains) (yeast (5 strains)): 0.59
MIC (Candida parapsilosis): 2.5 µM (≈ 2.42 µg/mL)
MIC [3]: 2.7 µM (≈ 2.61 µg/mL)
MIC (Apophysomyces sp.): 16 µM (≈ 15.5 µg/mL)
P450 2D6 % Inhibition (CYP2D6): 2.74% and 2.77%
P450 2C9 % Inhibition (CYP2C9): 18.7%
P450 3A4 % Inhibition (CYP3A4): 15.7%
MIC (Cryptococcus gattii): 2 µM (≈ 1.93 µg/mL)
MIC (Cryptococcus neoformans): 2 µM (≈ 1.93 µg/mL)
MICavg moulds (159 strains) (Different Moulds): 2.3
MIC (Different Moulds): 2.3 µM (≈ 2.22 µg/mL)

CC1C=CC=CC=CC=CC=CC=CC=CC(OC2OC(C)C(O)C(N)C2O)CC2OC(O)(CC(O)CC(O)C(O)CCC(O)CC(O)CC(=O)OC(C)C(C)C1O)CC(O)C2C(=O)NCCF (stereo not drawn) [Compound BM]
Mouse candidiasis model (Candida albicans SN250): 5.7 Log (CFU/mL)
Liver microsome T1/2 [1]: >2.42 h
P450 1A2 % Inhibition (CYP1A2): 7.8%
MICavg yeast (46 strains) (Different Yeasts): 2.3
MIC (Different Yeasts): 2.3 µM (≈ 2.23 µg/mL)
MIC (Lomentospora prolificans): >16 µM
MIC (A. lentulus): 2.83 µM (≈ 2.74 µg/mL)
MIC [2]: >16 µM
MIC (Cunninghamella sp.): 6 µM (≈ 5.81 µg/mL)
MIC (Talaromyces marneffei): 0.2 µM (≈ 0.194 µg/mL)
MIC (Fusarium oxysporum): 9.3 µM (≈ 9.01 µg/mL)
MIC (Mucor circinelloides): 1 µM (≈ 0.969 µg/mL)
MIC (Candida krusei): 2 µM (≈ 1.94 µg/mL)
MIC (Syncephalastrum sp.): 1 µM (≈ 0.969 µg/mL)
MIC (Rhodotorula sp.): 3.3 µM (≈ 3.2 µg/mL)
MIC (Scedosporium aurantiacum): >16 µM
MIC (Blastomyces dermatitidis): 0.5 µM (≈ 0.485 µg/mL)
MIC (Sporothrix schenckii): 6.67 µM (≈ 6.46 µg/mL)
Solubility in D5W (Solubility in D5W): 150 µM (≈ 145 µg/mL)
Fold of Increase w.r.t. AmB (solubility) (Solubility in D5W): 6.5
MICavg yeast (5 strains) (yeast (5 strains)): 0.58
MIC (Candida parapsilosis): 2.4 µM (≈ 2.33 µg/mL)
MIC [3]: 2.67 µM (≈ 2.59 µg/mL)
MIC (Apophysomyces sp.): 8.3 µM (≈ 8.04 µg/mL)
P450 2D6 % Inhibition (CYP2D6): 2.1%
P450 2C9 % Inhibition (CYP2C9): 89.1%
P450 3A4 % Inhibition (CYP3A4): 12.4%
MIC (Cryptococcus gattii): 2 µM (≈ 1.94 µg/mL)
MIC (Cryptococcus neoformans): 2 µM (≈ 1.94 µg/mL)
MICavg moulds (159 strains) (Different Moulds): 2.2
MIC (Different Moulds): 2.3 µM (≈ 2.23 µg/mL)
